Reference: ChEMBL document CHEMBL4610038, “The synthesis of trifluoromethylated N-nitroaryl-2-amino-1,3-dichloropropane derivatives and their evaluation as potential anti-cancer agents” (Bioorg Med Chem Lett, 2020)

Experiments:
MCF7 [1] = experiment: Cytotoxicity against human MCF7 cells assessed as cell viability at 100 uM relative to control; format: functional; conditions: read-out: Activity
MDA-MB-231 [2] = experiment: Cytotoxicity against human MDA-MB-231 cells assessed as cell viability at 100 uM relative to control; format: functional; conditions: read-out: Activity
MDA-MB-468 [3] = experiment: Cytotoxicity against human MDA-MB-468 cells assessed as cell viability at 100 uM relative to control; format: functional; conditions: read-out: Activity
SK-BR-3 [4] = experiment: Cytotoxicity against human SKBR3 cells assessed as cell viability at 100 uM relative to control; format: functional; conditions: read-out: Activity
T47D [5] = experiment: Cytotoxicity against human T47D cells assessed as cell viability at 100 uM relative to control; format: functional; conditions: read-out: Activity
Caco-2 [6] = experiment: Cytotoxicity against human Caco2 cells assessed as cell viability at 100 uM relative to control; format: functional; conditions: read-out: Activity
HCT-116 [7] = experiment: Cytotoxicity against human HCT116 cells assessed as cell viability at 100 uM relative to control; format: functional; conditions: read-out: Activity
HT-29 [8] = experiment: Cytotoxicity against human HT-29 cells assessed as cell viability at 100 uM relative to control; format: functional; conditions: read-out: Activity
SW48 [9] = experiment: Cytotoxicity against human SW48 cells assessed as cell viability at 100 uM relative to control; format: functional; conditions: read-out: Activity
A549 [10] = experiment: Cytotoxicity against human A549 cells assessed as cell viability at 100 uM relative to control; format: functional; conditions: read-out: Activity
NCI-H1299 [11] = experiment: Cytotoxicity against human H1299 cells assessed as cell viability at 100 uM relative to control; format: functional; conditions: read-out: Activity
CNE [12] = experiment: Cytotoxicity against human CNE1 cells assessed as cell viability at 100 uM relative to control; format: functional; conditions: read-out: Activity
[13] = Cytotoxicity against human HK1 cells assessed as cell viability at 100 uM relative to control; format: functional; conditions: HK-1, read-out: Activity
SUNE1 [14] = experiment: Cytotoxicity against human SUNE1 cells assessed as cell viability at 100 uM relative to control; format: functional; conditions: read-out: Activity
SH-SY5Y [15] = experiment: Cytotoxicity against human SH-SY5Y cells assessed as cell viability at 100 uM relative to control; format: functional; conditions: read-out: Activity
ASPC1 [16] = experiment: Cytotoxicity against human AsPC1 cells assessed as cell viability at 100 uM relative to control; format: functional; conditions: read-out: Activity
BXPC-3 [17] = experiment: Cytotoxicity against human BxPC3 cells assessed as cell viability at 100 uM relative to control; format: functional; conditions: read-out: Activity
SW1990 [18] = experiment: Cytotoxicity against human SW1990 cells assessed as cell viability at 100 uM relative to control; format: functional; conditions: read-out: Activity
[19] = Cytotoxicity against human MCF10A cells assessed as cell viability at 100 uM relative to control; format: cell-based, MCF-10A; conditions: read-out: Activity
[20] = Cytotoxicity against human MRC5 cells assessed as cell viability at 100 uM relative to control; format: cell-based; conditions: read-out: Activity
MCF7 [21] = experiment: Cytotoxicity against human MCF7 cells assessed as reduction in cell viability; format: functional, cell-based
MDA-MB-231 [22] = experiment: Cytotoxicity against human MDA-MB-231 cells assessed as reduction in cell viability; format: functional, cell-based
MDA-MB-468 [23] = experiment: Cytotoxicity against human MDA-MB-468 cells assessed as reduction in cell viability; format: functional, cell-based
SK-BR-3 [24] = experiment: Cytotoxicity against human SKBR3 cells assessed as reduction in cell viability; format: functional, cell-based
T47D [25] = experiment: Cytotoxicity against human T47D cells assessed as reduction in cell viability; format: functional, cell-based
Caco-2 [26] = experiment: Cytotoxicity against human Caco2 cells assessed as reduction in cell viability; format: functional, cell-based
HCT-116 [27] = experiment: Cytotoxicity against human HCT116 cells assessed as reduction in cell viability; format: functional, cell-based
HT-29 [28] = experiment: Cytotoxicity against human HT-29 cells assessed as reduction in cell viability; format: functional, cell-based
SW48 [29] = experiment: Cytotoxicity against human SW48 cells assessed as reduction in cell viability; format: functional, cell-based
A549 [30] = experiment: Cytotoxicity against human A549 cells assessed as reduction in cell viability; format: functional, cell-based
NCI-H1299 [31] = experiment: Cytotoxicity against human H1299 cells assessed as reduction in cell viability; format: functional, cell-based
CNE [32] = experiment: Cytotoxicity against human CNE1 cells assessed as reduction in cell viability; format: functional, cell-based
[33] = Cytotoxicity against human HK1 cells assessed as reduction in cell viability; format: functional, cell-based; conditions: HK-1
SUNE1 [34] = experiment: Cytotoxicity against human SUNE1 cells assessed as reduction in cell viability; format: functional, cell-based
SH-SY5Y [35] = experiment: Cytotoxicity against human SH-SY5Y cells assessed as reduction in cell viability; format: functional, cell-based
ASPC1 [36] = experiment: Cytotoxicity against human AsPC1 cells assessed as reduction in cell viability; format: functional, cell-based
BXPC-3 [37] = experiment: Cytotoxicity against human BxPC3 cells assessed as reduction in cell viability; format: functional, cell-based
SW1990 [38] = experiment: Cytotoxicity against human SW1990 cells assessed as reduction in cell viability; format: functional, cell-based
MCF-10A = experiment: Cytotoxicity against human MCF10A cells assessed as reduction in cell viability; format: cell-based
MRC5 = experiment: Cytotoxicity against human MRC5 cells assessed as reduction in cell viability; format: cell-based

| Compound | viability at 100 µM (MCF7 [1]) [%] | viability at 100 µM (MDA-MB-231 [2]) [%] | viability at 100 µM (MDA-MB-468 [3]) [%] | viability at 100 µM (SK-BR-3 [4]) [%] | viability at 100 µM (T47D [5]) [%] | viability at 100 µM (Caco-2 [6]) [%] | viability at 100 µM (HCT-116 [7]) [%] | viability at 100 µM (HT-29 [8]) [%] | viability at 100 µM (SW48 [9]) [%] | viability at 100 µM (A549 [10]) [%] | viability at 100 µM (NCI-H1299 [11]) [%] | viability at 100 µM (CNE [12]) [%] | viability at 100 µM [13] [%] | viability at 100 µM (SUNE1 [14]) [%] | viability at 100 µM (SH-SY5Y [15]) [%] | viability at 100 µM (ASPC1 [16]) [%] | viability at 100 µM (BXPC-3 [17]) [%] | viability at 100 µM (SW1990 [18]) [%] | viability at 100 µM [19] [%] | viability at 100 µM [20] [%] | further results |
| --- | --- | --- | --- | --- | --- | --- | --- | --- | --- | --- | --- | --- | --- | --- | --- | --- | --- | --- | --- | --- | --- |
| O=[N+]([O-])c1cc(C(F)(F)F)ccc1NC(CO)CO | 57.4 | 67.3 | 100 | 66.4 | 68.6 | 89.5 | 83.9 | 95.2 | 98.8 | 57.9 | 91.3 | 106 | 92.9 | 83.4 | 84.9 | 81.8 | 108 | 68.5 | 102 | 64.9 | IC50 (MCF7 [21]): > 100 µM; IC50 (MDA-MB-231 [22]): > 100 µM; IC50 (MDA-MB-468 [23]): > 100 µM; IC50 (SK-BR-3 [24]): > 100 µM; IC50 (T47D [25]): > 100 µM; IC50 (Caco-2 [26]): > 100 µM; IC50 (HCT-116 [27]): > 100 µM; IC50 (HT-29 [28]): > 100 µM; IC50 (SW48 [29]): > 100 µM; IC50 (A549 [30]): > 100 µM; IC50 (NCI-H1299 [31]): > 100 µM; IC50 (CNE [32]): > 100 µM; IC50 [33]: > 100 µM; IC50 (SUNE1 [34]): > 100 µM; IC50 (SH-SY5Y [35]): > 100 µM; IC50 (ASPC1 [36]): > 100 µM; IC50 (BXPC-3 [37]): > 100 µM; IC50 (SW1990 [38]): > 100 µM; IC50 (MCF-10A): > 100 µM; IC50 (MRC5): > 100 µM |
| O=[N+]([O-])c1ccc(NC(CO)CO)cc1C(F)(F)F | 49.7 | 65.7 | 98.7 | 79.4 | 71.2 | 96.1 | 86.8 | 110 | 78.9 | 61.9 | 72.3 | 100 | 92.8 | 104 | 70.8 | 87.3 | 108 | 71.5 | 102 | 32.8 | IC50 (MCF7 [21]): 88.1 µM; IC50 (MDA-MB-231 [22]): > 100 µM; IC50 (MDA-MB-468 [23]): > 100 µM; IC50 (SK-BR-3 [24]): > 100 µM; IC50 (T47D [25]): > 100 µM; IC50 (Caco-2 [26]): > 100 µM; IC50 (HCT-116 [27]): > 100 µM; IC50 (HT-29 [28]): > 100 µM; IC50 (SW48 [29]): > 100 µM; IC50 (A549 [30]): > 100 µM; IC50 (NCI-H1299 [31]): > 100 µM; IC50 (CNE [32]): > 100 µM; IC50 [33]: > 100 µM; IC50 (SUNE1 [34]): > 100 µM; IC50 (SH-SY5Y [35]): > 100 µM; IC50 (ASPC1 [36]): > 100 µM; IC50 (BXPC-3 [37]): > 100 µM; IC50 (SW1990 [38]): > 100 µM; IC50 (MCF-10A): > 100 µM; IC50 (MRC5): 41 µM |
| O=[N+]([O-])c1cc(C(F)(F)F)ccc1NC(CCl)CCl | 21.4 | 32.1 | 65.1 | 38.5 | 25.6 | 21.9 | 45.1 | 47.1 | 32.8 | 24.6 | 52.4 | 27.1 | 59.7 | 42.3 | 33.7 | 51.1 | 62.9 | 42.1 | 77.1 | 29.9 | IC50 (MCF7 [21]): 34.3 µM; IC50 (MDA-MB-231 [22]): 54.5 µM; IC50 (MDA-MB-468 [23]): > 100 µM; IC50 (SK-BR-3 [24]): 67.8 µM; IC50 (T47D [25]): 35.1 µM; IC50 (Caco-2 [26]): 39.9 µM; IC50 (HCT-116 [27]): 82.1 µM; IC50 (HT-29 [28]): 87.8 µM; IC50 (SW48 [29]): 62.3 µM; IC50 (A549 [30]): 33.3 µM; IC50 (NCI-H1299 [31]): > 100 µM; IC50 (CNE [32]): 32.1 µM; IC50 [33]: > 100 µM; IC50 (SUNE1 [34]): 92.9 µM; IC50 (SH-SY5Y [35]): 62.5 µM; IC50 (ASPC1 [36]): > 100 µM; IC50 (BXPC-3 [37]): > 100 µM; IC50 (SW1990 [38]): 92.1 µM; IC50 (MCF-10A): > 100 µM; IC50 (MRC5): 62.1 µM |
